According to the supplement of paper PMC10307832:

Tests used:
[1] = compound: CC1=CC(=CC=C1)NC2=NC(=CS2)C3=CC=NC=C3 + CCNC(=O)c1noc(-c2cc(C(C)C)c(O)cc2O)c1-c1ccc(CN2CCOCC2)cc1 [Luminespib] (partner 0.01 µM); experiment: relative viability (nuclei count vs DMSO), 5 days (fraction); higher = more cells survive
Procedure, shortened: (§1)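 The day after seeding in 1536-well plates, lung cancer cell lines were treated by pin tool with a single drug, or with a fixed anchor-drug dose together with five library-drug doses (not always all listed) in √10 steps. After 5 days, a combined fix-and-stain solution (final 0.05% Triton X-100, 1% formaldehyde, 1 ug/ml Hoechst) was added. Nuclei counted on 4× images gave relative viability as treated counts over vehicle counts, reported as the median of duplicate plates.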

[2] = compound: CC1=CC(=CC=C1)NC2=NC(=CS2)C3=CC=NC=C3 + Cc1nc(Nc2ncc(C(=O)Nc3c(C)cccc3Cl)s2)cc(N2CCN(CCO)CC2)n1 [Dasatinib] (partner 0.075 µM); experiment: as above
Procedure, shortened: as §1

Cell Line | relative viability ([1]; first compound 0.08 µM) | relative viability ([1]; first compound 0.253 µM) | relative viability ([1]; first compound 0.8 µM) | relative viability ([1]; first compound 2.53 µM) | relative viability ([1]; first compound 8 µM) | relative viability ([2]; first compound 0.08 µM) | relative viability ([2]; first compound 0.253 µM) | relative viability ([2]; first compound 0.8 µM) | relative viability ([2]; first compound 2.53 µM) | relative viability ([2]; first compound 8 µM)
COR-L23 | 0.603 | 0.648 | 0.564 | 0.659 | 0.662 | 0.479 | 0.511 | 0.389 | 0.338 | 0.402
COR-L 105 | 0.727 | 0.769 | 0.755 | 0.591 | 0.665 | 0.284 | 0.289 | 0.349 | 0.279 | 0.306
LK-2 |  | 0.161 | 0.207 |  | 0.183 |  | 0.241 | 0.421 |  | 0.327
201T | 1.08 | 0.993 | 1 | 0.95 | 0.849 | 0.59 | 0.515 | 0.497 | 0.508 | 0.382
HCC-44 | 0.974 | 0.939 | 1.06 | 1.01 | 1.09 |  |  |  |  | 
NCI-H647 | 0.114 | 0.162 | 0.177 | 0.313 | 0.338 | 0.17 | 0.172 | 0.195 | 0.148 | 0.196
H3255 | 0.902 | 0.681 | 0.905 | 0.702 | 0.826 | 0.397 | 0.347 | 0.489 | 0.341 | 0.528
NCI-H650 | 0.866 | 0.803 | 0.929 | 0.687 | 0.893 | 0.366 | 0.413 | 0.447 | 0.376 | 0.475
NCI-H2085 | 0.381 | 0.428 | 0.444 | 0.383 | 0.393 | 0.241 | 0.243 | 0.241 | 0.186 | 0.243
NCI-H2347 | 0.409 | 0.248 |  | 0.555 | 0.232 | 0.274 | 0.301 |  | 0.388 | 0.389
NCI-H2170 | 0.624 | 0.701 | 0.775 | 0.527 | 0.48 | 0.581 | 0.574 | 0.609 | 0.564 | 0.489
NCI-H1944 | 0.674 | 0.771 | 0.792 | 0.654 | 0.72 | 0.202 | 0.208 | 0.328 | 0.243 | 0.282
NCI-H596 | 0.938 | 0.959 | 0.809 | 0.911 | 0.814 | 0.501 | 0.507 | 0.584 | 0.524 | 0.435
NCI-H520 | 0.223 | 0.201 | 0.252 | 0.206 | 0.241 | 0.225 | 0.239 | 0.25 | 0.209 | 0.243
EKVX | 0.854 | 0.835 | 0.892 | 0.819 | 0.765 | 0.208 | 0.518 | 0.552 | 0.446 | 0.306
SK-MES-1 | 0.614 | 0.515 | 0.556 | 0.749 | 0.508 | 0.276 | 0.256 | 0.327 | 0.279 | 0.235
EPLC-272H | 0.194 | 0.359 | 0.218 | 0.245 | 0.389 | 0.396 | 0.338 | 0.273 | 0.288 | 0.333
NCI-H1650 | 0.214 | 0.181 | 0.222 | 0.194 | 0.186 | 0.325 | 0.28 | 0.366 | 0.228 | 0.221

Cell Line | relative viability ([1]; first compound 0.08 µM) | relative viability ([1]; first compound 0.253 µM) | relative viability ([1]; first compound 0.8 µM) | relative viability ([1]; first compound 2.53 µM) | relative viability ([1]; first compound 8 µM) | relative viability ([2]; first compound 0.08 µM) | relative viability ([2]; first compound 0.253 µM) | relative viability ([2]; first compound 0.8 µM) | relative viability ([2]; first compound 2.53 µM) | relative viability ([2]; first compound 8 µM)
NCI-H1395 | 0.597 | 0.72 | 0.688 | 0.643 | 0.524 | 0.364 | 0.372 | 0.402 | 0.397 | 0.404
NCI-H2228 | 0.107 | 0.159 | 0.194 | 0.164 | 0.17 | 0.402 | 0.605 | 0.468 | 0.433 | 0.445
NCI-H2023 | 0.716 | 0.706 | 0.889 | 0.659 | 0.427 | 0.456 | 0.427 | 0.434 | 0.348 | 0.338
SW 900 | 0.186 | 0.178 | 0.172 | 0.188 | 0.178 | 0.358 | 0.477 | 0.527 | 0.615 | 0.383
NCI-H3122 | 0.125 | 0.0766 | 0.101 | 0.0836 | 0.105 | 0.78 | 0.821 | 1.05 | 0.819 | 0.77
NCI-H1792 | 0.305 | 0.407 | 0.375 | 0.326 | 0.351 | 0.689 |  | 0.832 | 0.54 | 0.63
HCC-78 |  |  |  |  |  |  | 0.376 | 0.398 | 0.379 | 0.523
LOU-NH91 | 0.319 | 0.351 | 0.33 | 0.297 | 0.314 | 0.464 | 0.51 | 0.432 | 0.472 | 0.458
NCI-H322M | 0.76 | 0.893 | 0.924 | 0.961 | 0.982 | 0.244 | 0.222 | 0.257 | 0.264 | 0.259
HCC-827 | 0.618 | 0.453 | 0.649 | 0.89 | 0.726 | 0.422 | 0.352 | 0.437 | 0.455 | 0.464
SW 1573 | 0.296 | 0.19 | 0.16 | 0.248 | 0.253 | 0.612 | 0.369 | 0.612 | 0.603 | 0.432
NCI-H1993 | 0.767 | 0.545 | 0.546 | 0.624 | 0.7 | 0.532 | 0.513 | 0.52 | 0.545 | 0.485
NCI-H1734 | 0.203 | 0.22 | 0.22 | 0.192 | 0.191 | 0.471 | 0.435 | 0.491 | 0.503 | 0.538
NCI-H1666 | 0.976 | 0.958 | 0.773 | 0.81 | 0.679 | 0.734 | 0.737 | 0.699 | 0.522 | 0.582
NCI-H460 | 0.0315 | 0.0322 | 0.04 | 0.0298 | 0.0349 | 0.44 | 0.306 | 0.554 | 0.381 | 0.343
LCLC-103H | 1 | 0.824 | 0.878 | 0.943 | 0.608 | 0.517 | 0.44 | 0.41 | 0.386 | 0.385
LCLC-97TM1 | 0.689 | 0.794 | 0.839 | 0.816 | 0.825 | 0.898 | 0.824 | 0.963 | 0.856 | 1.01
